In PubChem BioAssay AID262 (DTP/NCI, 2004):
“And” between values parts separate entries of the source, which are not always exact repeats. Equal entries are not always repeated.

System: LX-1 lung xenograft sc, nude mice, tumor weight
Test: NCI In Vivo Anticancer Drug Screen. Data for tumor model Human Lung LX-1 Xenograft (subcutaneous) in NU/NU Swiss (nude) mice
Details: endpoint: optimum tumor weight change, schedule: Q04DX003 (ip), higher = larger tumour
Description: The antitumor activity of compounds was measured in mice bearing transplantable tumors. Survival or tumor size were measured and the results are expressed as the measurement made in the treated group (T) divided by the measurement made in the vehicle treated control group (C). The tumor model used in this assay is Human Lung LX-1 Xenograft (subcutaneous) in NU/NU Swiss (nude) mice

[1] = dose: 5.0 mg/kg/injection, vehicle: Klucel (hydroxypropylcellulose) (HPC)
[2] = dose: 12.5 mg/kg/injection, vehicle: Klucel (hydroxypropylcellulose) (HPC)
[3] = dose: 25.0 mg/kg/injection, vehicle: Klucel (hydroxypropylcellulose) (HPC)

Cc1c(N)nc([C@H](CC(N)=O)NC[C@H](N)C(N)=O)nc1C(=O)N[C@H](C(=O)N[C@H](C)[C@@H](O)[C@H](C)C(=O)N[C@H](C(=O)NCCc1nc(-c2nc(C(=O)NCCC[S+](C)C)cs2)cs1)[C@@H](C)O)C(OC1OC(CO)C(O)C(O)C1OC1OC(CO)C(O)C(OC(N)=O)C1O)c1cnc[nH]1 (stereo partly specified)
T/C (dose: 3.75 mg/kg/injection, vehicle: saline): 45 % of control | T/C (dose: 4.0 mg/kg/injection, vehicle: saline): 70 % of control | T/C (dose: 16.0 mg/kg/injection, vehicle: saline): 49 % of control and 56 % of control and 63 % of control | T/C (dose: 30.0 mg/kg/injection, vehicle: saline): 33 % of control and 55 % of control | T/C (dose: 60.0 mg/kg/injection, vehicle: saline): 8 % of control and 21 % of control

NC(Cc1ccc(N(CCCl)CCCl)cc1)C(=O)O (stereo unspecified)
T/C [1]: 66 % of control

CNC=O
T/C (dose: 200.0 mg/kg/injection, vehicle: saline): 64 % of control and 82 % of control and 86 % of control | T/C (dose: 200.0 mg/kg/injection, vehicle: suspension in saline): 56 % of control and 67 % of control | T/C (dose: 400.0 mg/kg/injection, vehicle: saline): 38 % of control and 41 % of control and 49 % of control | T/C (dose: 400.0 mg/kg/injection, vehicle: suspension in saline): 37 % of control and 57 % of control | T/C (dose: 800.0 mg/kg/injection, vehicle: saline): 12 % of control and 23 % of control | T/C (dose: 800.0 mg/kg/injection, vehicle: suspension in saline): 25 % of control and 30 % of control

CN(C)N=Nc1ccccc1
T/C [2]: 94 % of control | T/C [3]: 61 % of control and 79 % of control

Nc1nc(N)c2cc(CNc3ccc(C(=O)NC(CC(=O)O)CC(=O)O)cc3)ccc2n1
T/C (dose: 6.25 mg/kg/injection, vehicle: Klucel (hydroxypropylcellulose) (HPC)): 66 % of control | T/C [2]: 71 % of control | T/C [3]: 78 % of control

COc1cccc2c1C(=O)c1c(O)c3c(c(O)c1C2=O)C[C@@](O)(/C(C)=N\O)C[C@@H]3OC1CC(N)C(O)C(C)O1 (stereo partly specified)
T/C (dose: 12.5 mg/kg/injection, vehicle: saline): 55 % of control

N/C(=N\O)c1cn(C2OC(CO)C(O)C2O)c2ncnc(N)c12 (stereo unspecified)
T/C [1]: 70 % of control | T/C (dose: 10.0 mg/kg/injection, vehicle: Klucel (hydroxypropylcellulose) (HPC)): 68 % of control | T/C (dose: 20.0 mg/kg/injection, vehicle: Klucel (hydroxypropylcellulose) (HPC)): 62 % of control

O=P1(NCCCl)OCCCN1CCCl (stereo unspecified)
T/C (dose: 6.25 mg/kg/injection, vehicle: saline): 26 % of control | T/C (dose: 25.0 mg/kg/injection, vehicle: saline): 54 % of control | T/C (dose: 50.0 mg/kg/injection, vehicle: saline): 39 % of control

COc1ccc(C(N)=O)cc1N=NN(C)C
T/C (dose: 18.75 mg/kg/injection, vehicle: Klucel (hydroxypropylcellulose) (HPC)): 60 % of control

CN(C)N=Nc1cccc(C(N)=O)c1
T/C [2]: 98 % of control | T/C [3]: 36 % of control

CC(=O)OCC1OC(n2cc(CBr)nn2)C(OC(C)=O)C(OC(C)=O)C1OC(C)=O (stereo unspecified)
T/C (dose: 25.0 mg/kg/injection, vehicle: saline with Tween-80): 169 % of control | T/C (dose: 50.0 mg/kg/injection, vehicle: saline with Tween-80): 61 % of control | T/C (dose: 100.0 mg/kg/injection, vehicle: saline with Tween-80): 107 % of control | T/C (dose: 200.0 mg/kg/injection, vehicle: saline with Tween-80): 110 % of control
